Test results: US12559494B2, “Functionalized lactams as modulators of the 5-hydroxytryptamine receptor 7 and their method of use” (Temple University - Of The Commonwealth System of Higher …, priority 2018, dated 2026)
Where a name gives a salt, the structure may show the parent alone. Read-outs that look alike come from different tables or passages of the source. Blank lines part the entries; values can stand above or below the compound they belong to.

Key:
5HT7 receptors [1] = biological target: T1, 5HT7 receptors (Homo sapiens, UniProt P34969); experiment: Radiolabeled binding (IC50 and Ki), [3H]LSD competition on membranes of cells expressing recombinant 5HT7 receptors; set-up: expressed in transfected cells; conditions: for IC50: [3H]LSD radioligand, membranes of cells expressing recombinant 5HT7 receptors, read-out: IC50 (nM)^1; for Ki: Table 35, scaffold drawing 615
Method: Radiolabel Binding Studies for Serotonin 5HT7 Receptors, Method 1:
(§1) A solution of the compound of the disclosure to be tested is prepared as a 1-mg/ml stock in Assay Buffer or DMSO according to its solubility. A similar stock of the reference compound chlorpromazine is also prepared as a positive control. Eleven dilutions (5×assay concentration) of the compound of the disclosure and chlorpromazine are prepared in the Assay Buffer by serial dilution to yield final corresponding assay concentrations ranging from 10 pM to 10 μM.
A stock concentration of 5 nM [^3H]LSD (lysergic acid diethyl amide) is prepared in 50 mM Tris-HCl, 10 mM MgCl2, 1 mM EDTA, pH 7.4 (Assay Buffer). Aliquots (50 μl) of radioligand are dispensed into the wells of a 96-well plate containing 100 μl of Assay Buffer. Duplicate 50-μl aliquots of the compound of the disclosure test and chlorpromazine positive control reference compound serial dilutions are added.
Membrane fractions of cells expressing recombinant 5HT7 receptors (50 μL) are dispensed into each well. The membranes are prepared from stably transfected cell lines expressing 5HT7 receptors cultured on 10-cm plates by harvesting PBS-rinsed monolayers, resuspending and lysing in chilled, hypotonic 50 mM Tris-HCl, pH 7.4, centrifuging at 20,000×g, decanting the supernatant and storing at −80° C.; the membrane preparations are resuspended in 3 ml of chilled Assay Buffer and homogenized by several passages through a 26 gauge needle before using in the assay.
The 250-μl reactions are incubated at room temperature for 1.5 hours, then harvested by rapid filtration onto 0.3% polyethyleneimine-treated, 96-well filter mats using a 96-well Filtermate harvester. Four rapid 500-μl washes are performed with chilled Assay Buffer to reduce non-specific binding. The filter mats are dried, then scintillant is added to the filters and the radioactivity retained on the filters is counted in a Microbeta scintillation counter.
Raw data (dpm) representing total radioligand binding (i.e., specific+non-specific binding) are plotted as a function of the logarithm of the molar concentration of the competitor (i.e., test or reference compound). Non-linear regression of the normalized (i.e., percent radioligand binding compared to that observed in the absence of test or reference compound) raw data is performed in Prism 4.0 (GraphPad Software) using the built-in three parameter logistic model describing ligand competition binding to radioligand-labeled sites: y=bottom+[(top-bottom)/(1+10×−logIC50)] where bottom equals the residual radioligand binding measured in the presence of 10 μM reference compound (i.e., non-specific binding) and top equals the total radioligand binding observed in the absence of competitor. The log IC50 (i.e., the log of the ligand concentration that reduces radioligand binding by 50%) is thus estimated from the data and used to obtain the Ki by applying the Cheng-Prusoff approximation: Ki=IC50/(1+[ligand]/KD) • where [ligand] equals the assay radioligand concentration and KD equals the affinity constant of the radioligand for the target receptor.
^1Radiolabeled Binding (IC50 and K1)
as §1, with “tested was” for “tested is”, “chlorpromazine was” for “chlorpromazine is”, “dilutions (5× assay” for “dilutions (5×assay”, “chlorpromazine were” for “chlorpromazine are”, “[…]” for “10 pM”
A stock concentration of 5 nM [^3H]LSD (lysergic acid diethyl amide) was prepared in 50 mM Tris-HCl, 10 mM MgCl2, 1 mM EDTA, pH 7.4 (Assay Buffer). Aliquots (50 μl) of radioligand were dispensed into the wells of a 96-well plate containing 100 μl of Assay Buffer. […]

5HT7 receptors [2] = biological target: T1, 5HT7 receptors; experiment: Functional data (Kb), HitHunter cAMP enzyme fragment complementation assay with 5-HT as agonist; assay type: cell-based; set-up: expressed in transfected cells; G418 selection)
Method: Functional efficacy of the compounds of the disclosure on 5-HT7 serotonin receptors were measured in a cell based cAMP enzyme fragment complementation assay using the HitHunter cAMP assay (DiscoveRx). Cells stably expressing human 5HT7 receptors were plated in 96-well plates at 4000 cells/well, 16-20 hours prior to assay in growth media (Ultraculture medium, 2 mM GlutaMax and G418 1 mg/mL. Serial dilutions of the agonist, 5-hydroxytryptamine (5-HT), were prepared in a final concentration range of 10 μM to 10 nM. Compounds of the disclosure were prepared in 3-fold serial dilutions to obtain a final concentration range of 10 μM to 0.1 nM. Compounds of the disclosure are tested for agonist activity in the absence of 5-HT and antagonist activity in the presence of 5-HT. For the cAMP assay, the protocol was followed according to the instructions provided by the supplier. Briefly, cells were incubated with a compound of the disclosure for 30 minutes at 37° C. prior to addition of EC70 concentration of 5-HT. After an additional 30 minutes, cAMP antibody/cell lysis solution was added (20 μL/well) and incubated for 60 minutes at room temperature. cAMP XS+EA reagent is added (20 μL/well) and incubated for 2 hours at room temperature. Luminescence was read on the Envision Multilabel plate reader.

[3] = cAMP assay, cells stably expressing human 5HT7 receptors, antagonist activity in the presence of EC70 5-HT, read-out: Kb (nM)^2
[4] = Table 35, scaffold drawing 615, antagonist mode vs 5-HT, read-out: Kb
[5] = Table 36, scaffold drawing 616, antagonist mode vs 5-HT, read-out: Kb
[6] = Table 37, scaffold drawing 617, antagonist mode vs 5-HT, read-out: Kb

T1 sequence (P34969 whole entry): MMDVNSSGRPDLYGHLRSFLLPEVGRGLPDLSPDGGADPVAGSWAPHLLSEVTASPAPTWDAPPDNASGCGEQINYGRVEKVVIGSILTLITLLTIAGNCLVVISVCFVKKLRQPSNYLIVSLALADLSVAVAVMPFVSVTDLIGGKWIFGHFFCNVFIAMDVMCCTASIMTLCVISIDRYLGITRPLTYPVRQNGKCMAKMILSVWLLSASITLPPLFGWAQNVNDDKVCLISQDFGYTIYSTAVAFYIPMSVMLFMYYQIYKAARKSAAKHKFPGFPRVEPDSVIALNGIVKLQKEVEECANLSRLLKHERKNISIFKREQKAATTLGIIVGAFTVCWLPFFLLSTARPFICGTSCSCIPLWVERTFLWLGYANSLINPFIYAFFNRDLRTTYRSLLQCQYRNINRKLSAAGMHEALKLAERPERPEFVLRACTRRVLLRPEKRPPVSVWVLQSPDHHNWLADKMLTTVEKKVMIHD

SMILES: CCC1(CC)CC(CCN2CCN(c3ccccc3C(C)C)CC2)NC1=O (stereo not shown) [3,3-diethyl-5-(2-(4-(2-isopropylphenyl)piperazin-1-yl)ethyl)pyrrolidin-2-one]
- IC50 (5HT7 receptors [1]): 23 nM
- Kb (5HT7 receptors [2]; [3]): 163 nM

SMILES: CCC1(CC)CC(CCN2CCN(c3ccccc3N3CCOCC3)CC2)NC1=O (stereo not shown) [3,3-diethyl-5-(2-(4-(2-morpholinophenyl)piperazin-1-yl)ethyl)pyrrolidin-2-one]
- IC50 (5HT7 receptors [1]): 24 nM
- Kb (5HT7 receptors [2]; [3]): 32.3 nM

SMILES: CCC1(CC)CC(CCN2CCN(c3ccc(F)cc3)CC2)NC1=O (stereo not shown) [3,3-diethyl-5-(2-(4-(4-fluorophenyl)piperazin-1-yl)ethyl)pyrrolidin-2-one]
- IC50 (5HT7 receptors [1]): 8.5 nM
- Kb (5HT7 receptors [2]; [3]): 8.98 nM

SMILES: CCC1(CC)CC(CCN2CCN(c3ccc(O)cc3)CC2)NC1=O (stereo not shown) [3,3-diethyl-5-(2-(4-(4-hydroxyphenyl)piperazin-1-yl)ethyl)pyrrolidin-2-one]
- IC50 (5HT7 receptors [1]): 34 nM
- Kb (5HT7 receptors [2]; [3]): 50 nM

SMILES: CCC1(CC)C[C@H](CCN2CCN(c3ccccc3OC)CC2)NC1=O [(R)-3,3-diethyl-5-(2-(4-(2-methoxyphenyl)piperazin-1-yl)ethyl)pyrrolidin-2-one]
- Kb (5HT7 receptors [2]; [4]): 230 nM

SMILES: CCC1(CC)C[C@H](CCN2CCN(c3ccc(C(F)(F)F)cc3)CC2)NC1=O [(R)-3,3-diethyl-5-(2-(4-(4-(trifluoromethyl)phenyl)piperazin-1-yl)ethyl)pyrrolidin-2-one]
- Kb (5HT7 receptors [2]; [4]): 137 nM

SMILES: CCC1(CC)C[C@H](CCN2CCN(c3ccccn3)CC2)NC1=O [(R)-3,3-diethyl-5-(2-(4-(pyridin-2-yl)piperazin-1-yl)ethyl)pyrrolidin-2-one]
- Kb (5HT7 receptors [2]; [4]): 4.91 nM

SMILES: CCC1(CC)C[C@H](CN2CCN(c3ccccc3C(C)C)CC2)NC1=O [(R)-3,3-diethyl-5-((4-(2-isopropylphenyl)piperazin-1-yl)methyl)pyrrolidin-2-one formate]
- Ki (5HT7 receptors [1]): 121 nM

SMILES: CCC1(CC)C[C@H](CN2CCN(c3ccc(F)cc3)CC2)NC1=O [(R)-3,3-diethyl-5-((4-(4-fluorophenyl)piperazin-1-yl)methyl)pyrrolidin-2-one formate]
- Ki (5HT7 receptors [1]): 243 nM

SMILES: CCC1(CC)C[C@H](CN2CCN(c3ccc(C)cc3)CC2)NC1=O [(R)-3,3-diethyl-5-((4-(p-tolyl)piperazin-1-yl)methyl)pyrrolidin-2-one formate]
- Ki (5HT7 receptors [1]): 249 nM

SMILES: CCC1(CC)C[C@H](CN2CCN(c3ccccn3)CC2)NC1=O [(R)-3,3-diethyl-5-((4-(pyridin-2-yl)piperazin-1-yl)methyl)pyrrolidin-2-one formate]
- Ki (5HT7 receptors [1]): 669 nM

SMILES: CCC1(CC)C[C@H](CCN2CCN(c3ccc(C#N)cc3)CC2)NC1=O [(R)-4-(4-(2-(4,4-diethyl-5-oxopyrrolidin-2-yl)ethyl)piperazin-1-yl)benzonitrile]
- Kb (5HT7 receptors [2]; [4]): 544 nM

SMILES: CCC1(CC)C[C@H](CCN2CCN(c3ccccc3Cl)CC2)NC1=O [(R)-5-(2-(4-(2-chlorophenyl)piperazin-1-yl)ethyl)-3,3-diethylpyrrolidin-2-one]
- Kb (5HT7 receptors [2]; [4]): 109 nM

SMILES: CCC1(CC)C[C@H](CCN2CCN(c3ccccc3C)CC2)NC1=O [(R)-5-(2-(4-(2-methylphenyl)piperazin-1-yl)ethyl)-3,3-diethylpyrrolidin-2-one]
- Kb (5HT7 receptors [2]; [4]): 127 nM

Results, then the compound that gave them:

- Kb (5HT7 receptors [2]; [4]): 9.89 nM
SMILES: CCC1(CC)C[C@H](CCN2CCN(c3cccc(F)c3)CC2)NC1=O [(R)-5-(2-(4-(3-fluorophenyl)piperazin-1-yl)ethyl)-3,3-diethylpyrrolidin-2-one]

- Kb (5HT7 receptors [2]; [4]): 1.65 nM
SMILES: CCC1(CC)C[C@H](CCN2CCN(c3cccc(C)c3)CC2)NC1=O [(R)-5-(2-(4-(3-methylphenyl)piperazin-1-yl)ethyl)-3,3-diethylpyrrolidin-2-one]

- Ki (5HT7 receptors [1]): 1090 nM
SMILES: CCC1(CC)C[C@H](CN2CCN(c3cccc(Cl)c3)CC2)NC1=O [(R)-5-((4-(3-chlorophenyl)piperazin-1-yl)methyl)-3,3-diethylpyrrolidin-2-one]

- Kb (5HT7 receptors [2]; [5]): 36.3 nM
SMILES: O=C1N[C@H](CCN2CCN(c3cccc(Cl)c3)CC2)CC12CC=CC2 [(S)-3-(2-(4-(3-chlorophenyl)piperazin-1-yl)ethyl)-2-azaspiro[4.4]non-7-en-1-one]

- Kb (5HT7 receptors [2]; [5]): 48.4 nM
SMILES: O=C1N[C@H](CCN2CCN(c3cccc(Cl)c3)CC2)CC12CCCC2 [(S)-3-(2-(4-(3-chlorophenyl)piperazin-1-yl)ethyl)-2-azaspiro[4.4]nonan-1-one]

- Kb (5HT7 receptors [2]; [5]): 46.2 nM
SMILES: O=C1N[C@H](CCN2CCN(c3ccc(F)cc3)CC2)CC12CC=CC2 [(S)-3-(2-(4-(4-fluorophenyl)piperazin-1-yl)ethyl)-2-azaspiro[4.4]non-7-en-1-one]

- Kb (5HT7 receptors [2]; [5]): 52.6 nM
SMILES: O=C1N[C@H](CCN2CCN(c3ccc(F)cc3)CC2)CC12CCCC2 [(S)-3-(2-(4-(4-fluorophenyl)piperazin-1-yl)ethyl)-2-azaspiro[4.4]nonan-1-one]

- Ki (5HT7 receptors [1]): 819 nM
SMILES: CCC1(CC)C[C@H](CN2CCN(c3ccccc3)CC2)NC1=O [drawing 615 n=1 R1=Ethyl R2=Ethyl R3=Phenyl, (R)-3,3-diethyl-5-((4-phenylpiperazin-1-yl)methyl)pyrrolidin-2-one formate]

- Kb (5HT7 receptors [2]; [4]): 6.59 nM
SMILES: CCC1(CC)C[C@H](CCN2CCN(c3ccccc3)CC2)NC1=O [drawing 615 n=2 R1=Ethyl R2=Ethyl R3=Phenyl, (R)-3,3-diethyl-5-(2-(4-phenylpiperazin-1-yl)ethyl)pyrrolidin-2-one]

- Kb (5HT7 receptors [2]; [6]): 321 nM
SMILES: CS(=O)(=O)N1CCC2(CC1)C[C@H](CCCN1CCN(c3cccc(Cl)c3)CC1)NC2=O [drawing 617 n=3 R3=3-Cl-Phenyl R7=MeSO2, (S)-3-(3-(4-(3-chlorophenyl)piperazin-1-yl)propyl)-8-(methylsulfonyl)-2,8-diazaspiro[4.5]decan-1-one]

- Kb (5HT7 receptors [2]; [6]): 526 nM
SMILES: CS(=O)(=O)N1CCC2(CC1)C[C@H](CCCN1CCN(c3ccc(F)cc3)CC1)NC2=O [drawing 617 n=3 R3=4-F-Phenyl R7=MeSO2, (S)-3-(3-(4-(4-fluorophenyl)piperazin-1-yl)propyl)-8-(methylsulfonyl)-2,8-diazaspiro[4.5]decan-1-one]

- Kb (5HT7 receptors [2]; [3]): 74.2 nM
SMILES: CS(=O)(=O)N1CCC2(CC1)C[C@@H](CCN1CCN(c3ccc(F)cc3)CC1)NC2=O [drawing 618; n=2; R3=4-F-Phenyl; R7=MeSO2, (S)-3-(2-(4-(4-fluorophenyl)piperazin-1-yl)ethyl)-8-(methylsulfonyl)-2,8-diazaspiro[4.5]decan-1-one]

- Kb (5HT7 receptors [2]; Table 39, scaffold drawing 619, antagonist mode vs 5-HT, read-out: Kb): 144 nM
SMILES: CCC1(CC)C[C@H](CCN2CC3CN(c4ccccc4)CC3C2)NC1=O (stereo partly drawn) [drawing 619 n=2 R1=Ethyl R2=Ethyl R3=Phenyl, (5R)-3,3-diethyl-5-(2-(5-phenylhexahydropyrrolo[3,4-c]pyrrol-2(1H)-yl)ethyl)pyrrolidin-2-one]
